Test results as given in patent US11066419B2, “1H-pyrrole-2,5-dione compounds and methods of using same” (Frequency Therapeutics, Inc., priority 2016, dated 2021).
pEC50, pIC50: −log10 of the molar value.

Assays:
[1] = target: recombinant human GSK3α (Homo sapiens, UniProt P49840); test: In vitro enzymatic assay for inhibition of GSK3α (Kinase-Glo Max luminescence); type: biochemical; settings: 10 uM ATP, 0.1 mg/ml GSKtide, 30° C. 40 minutes, read-out: Potency Alpha
Protocol: (§1) Enzymatic activities using recombinant human GSK3 using an in vitro enzymatic assay for inhibition GSK3α and GSK3β.
(§2) The assay was performed using Kinase-Glo Max luminescence kinase assay kit (Promega). It measures kinase activity by quantitating the amount of ATP remaining in solution following a kinase reaction. The luminescent signal from the assay is correlated with the amount of ATP present and is inversely correlated with the amount of kinase activity. The compounds were diluted in 10% DMSO and 5 μl of the dilution was added to a 50 μl reaction so that the final concentration of DMSO is 1% in all of reactions. The enzymatic reactions were conducted at 30° C. for 40 minutes. The 50 μl reaction mixture contains 40 mM Tris, pH 7.4, 10 mM MgCl2, 0.1 mg/ml BSA, 2 mM DTT, 0.1 mg/ml GSKtide substrate, 10 uM ATP and GSK3. After the enzymatic reaction, 50 μl of Kinase-Glo Max Luminescence kinase assay solution (Promega) was added to each reaction and incubate the plate for 15 minutes at room temperature. Luminescence signal was measured using a BioTek Synergy 2 microplate reader.
(§3) Kinase activity assays were performed in duplicate at each concentration. The luminescence data were analyzed using the computer software, Graphpad Prism. The difference between luminescence intensities in the absence of Kinase (Lut) and in the presence of Kinase (Luc) was defined as 100% activity (Lut−Luc). Using luminescence signal (Lu) in the presence of the compound, % activity was calculated as: % activity={(Lut−Lu)/(Lut−Luc)}×100%, where Lu=the luminescence intensity in the presence of the compound (all percent activities below zero were shown zero in the table).
(§4) The values of % activity versus a series of compound concentrations were then plotted using non-linear regression analysis of Sigmoidal dose-response curve generated with the equation Y=B+(T−B)/1+10((Log EC50−X)×Hill Slope), where Y=percent activity, B=minimum percent activity, T=maximum percent activity, X=logarithm of compound and Hill Slope=slope factor or Hill coefficient. The IC50 value was determined by the concentration causing a half-maximal percent activity.

[2] = target: recombinant human GSK3β (Homo sapiens, UniProt P49841); test: In vitro enzymatic assay for inhibition of GSK3β (Kinase-Glo Max luminescence); type: biochemical; settings: 10 uM ATP, 0.1 mg/ml GSKtide, 30° C. 40 minutes, read-out: Potency Beta
recombinant human GSK3β, sequence (P49841 whole entry): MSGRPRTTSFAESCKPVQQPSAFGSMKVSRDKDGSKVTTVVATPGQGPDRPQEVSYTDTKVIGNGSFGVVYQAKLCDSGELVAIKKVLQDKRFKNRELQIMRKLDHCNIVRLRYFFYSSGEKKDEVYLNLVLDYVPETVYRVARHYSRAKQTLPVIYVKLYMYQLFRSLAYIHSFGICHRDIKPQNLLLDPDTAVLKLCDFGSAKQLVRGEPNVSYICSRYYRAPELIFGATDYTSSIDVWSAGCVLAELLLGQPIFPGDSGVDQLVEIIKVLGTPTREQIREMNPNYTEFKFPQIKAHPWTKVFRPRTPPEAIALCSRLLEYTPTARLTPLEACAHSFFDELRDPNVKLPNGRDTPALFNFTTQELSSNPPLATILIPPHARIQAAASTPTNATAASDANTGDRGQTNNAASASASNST
Protocol: as §1, §2, §3, §4

[3] = tested on: Lgr5-positive cells; test: Expansion of Lgr5-positive cells (cochlear stem cell expansion, 3D Matrigel culture, flow cytometry for Lgr5-GFP); type: cell-based, mouse; settings: for pEC50: Mus musculus, 240 h, Lgr5-positive cell expansion, cochlear cells of neonatal Lgr5-EGFP-IRES-Cre-ER mice, 10 days in culture, read-out: Potency; for % of Cells: percentage of Lgr5-GFP-positive cells after 10 days (D10) in culture, flow cytometer
Protocol: Lgr5-EGFP-IRES-Cre-ER mice (Barker et al., 2007) (http://jaxmice.jax.org/strain/008875.html) are used to analyze the effects of small molecules on cochlear stem cell expansion.
Isolation of stem cells from the inner ear: All animal studies are conducted under an approved institutional protocol according to National Institutes of Health guidelines. For experiments with neonatal mice (postnatal days 1-3), the cochleae are dissected in HBSS and the organ of Corti are separated from the stria vascularis and the modiolus. The organs of Corti are then treated with Cell Recovery Solution (Corning) for 1 h to separate cochlear epithelium from the underlying mesenchyme. Epithelia are then collected and treated with TrypLE (Life Technologies) for 15-20 minutes at 37° C. Single cells obtained by mechanical trituration are filtered (40 μm) and suspended in Matrigel (Corning) for 3D culture.
Cells are cultured in a 1:1 mixture of DMEM and F12, supplemented with Glutamax (GIBCO), N2, B27 (Invitrogen), EGF (50 ng/ml; Chemicon), bFGF (50 ng/ml; Chemicon), IGF1 (50 ng/ml; Chemicon) and the composition provided herein. Media are changed every other day.
Lgr5-positive cells are quantified after 10 days (D10) in culture in multiple conditions. Cell colonies are dissociated into single cells using TrypLE (Gibco). The cells are then stained with propidium iodide (PI) and are analyzed using a flow cytometer for Lgr5-GFP expression. The number of GFP-positive cells and the percentage of GFP-positive cells are quantified.

recombinant human GSK3α, sequence (P49840 whole entry): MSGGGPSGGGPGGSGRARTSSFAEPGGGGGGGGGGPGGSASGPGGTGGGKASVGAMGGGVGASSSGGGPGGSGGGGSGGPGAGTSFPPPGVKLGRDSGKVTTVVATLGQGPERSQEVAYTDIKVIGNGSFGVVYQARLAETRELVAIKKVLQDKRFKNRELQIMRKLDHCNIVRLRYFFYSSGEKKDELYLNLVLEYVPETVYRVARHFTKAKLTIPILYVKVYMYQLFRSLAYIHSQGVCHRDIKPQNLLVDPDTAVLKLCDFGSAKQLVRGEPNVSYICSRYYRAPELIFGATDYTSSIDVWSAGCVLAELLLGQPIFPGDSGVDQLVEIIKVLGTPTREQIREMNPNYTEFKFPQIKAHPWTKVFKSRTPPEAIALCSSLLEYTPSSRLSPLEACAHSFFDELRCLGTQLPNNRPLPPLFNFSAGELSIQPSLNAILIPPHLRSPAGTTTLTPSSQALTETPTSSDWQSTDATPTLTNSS

pIC50 [1] | pIC50 [2] | pEC50 [3] | SMILES | % of Cells [3]
8.00 to 9.00 | 8.00 to 9.00 | 7.00 to 9.00 | O=C1NC(=O)C(c2cnc3ccccn23)=C1c1cn2c3c(cc(F)cc13)CN(C(=O)N1CCOCC(F)(F)C1)CC2 [Compound I-27] | +++ (“+++” indicates greater than about 11%)
8.00 to 9.00 | 8.00 to 9.00 | < 6.00 | O=C1NC(=O)C(c2cnc3ccccn23)=C1c1cn2c3c(cc(F)cc13)CN(C(=O)N1C[C@H]3C[C@@H]1CN3)CC2 [Compound I-13] | +++ (“+++” indicates greater than about 11%)
8.00 to 9.00 | 8.00 to 9.00 | 6.00 to 7.00 | N#Cc1cc2c3c(c1)c(C1=C(c4cnc5ccccn45)C(=O)NC1=O)cn3CCN(C(=O)N1CCC(F)(F)CC1)C2 [Compound I-16] | +++ (“+++” indicates greater than about 11%)
8.00 to 9.00 | 8.00 to 9.00 | < 6.00 | CN1CC2CC1CN2C(=O)N1CCn2cc(C3=C(c4cnc5ccccn45)C(=O)NC3=O)c3cc(F)cc(c32)C1 (centres unmarked) [Compound I-40] | + (“+” indicates about 0-5%)
8.00 to 9.00 | 8.00 to 9.00 | – | CN(C)C1CCN(C(=O)N2CCn3cc(C4=C(c5cnc6ccccn56)C(=O)NC4=O)c4cc(C#N)cc(c43)C2)CC1 [Compound I-45] | –
8.00 to 9.00 | 8.00 to 9.00 | – | CN1CCC(CN(C)C(=O)N2CCn3cc(C4=C(c5cnc6ccccn56)C(=O)NC4=O)c4cc(F)cc(c43)C2)CC1 [Compound I-39] | –
8.00 to 9.00 | 8.00 to 9.00 | 7.00 to 9.00 | O=C1NC(=O)C(c2cnc3ccccn23)=C1c1cn2c3c(cc(F)cc13)CN(C(=O)N1CC3CCC(C1)O3)CC2 [Compound I-8] | +++ (“+++” indicates greater than about 11%)
7.00 to 8.00 | 8.00 to 9.00 | < 6.00 | O=C1NC(=O)C(c2cn3c4c(cc(F)cc24)CN(C(=O)N2CCCCC2)CC3)=C1c1noc2ccccc12 [Compound I-9] | +++ (“+++” indicates greater than about 11%)
8.00 to 9.00 | 8.00 to 9.00 | – | O=C1NC(=O)C(c2cnc3ccccn23)=C1c1cn2c3c(cc(F)cc13)CN(C(=O)N1CCC(F)(F)C(O)C1)CC2 (centres unmarked) [Compound I-25] | –
8.00 to 9.00 | 8.00 to 9.00 | 7.00 to 9.00 | O=C1NC(=O)C(c2cnc3ccccn23)=C1c1cn2c3c(cc(C(F)(F)F)cc13)CN(C(=O)N1CCCCC1)CC2 [Compound I-1] | +++ (“+++” indicates greater than about 11%)
8.00 to 9.00 | 8.00 to 9.00 | – | O=C1NC(=O)C(c2nnc3ccccn23)=C1c1cn2c3c(cc(F)cc13)CN(C(=O)N1CCCCC1)CC2 [Compound I-28] | –
8.00 to 9.00 | 8.00 to 9.00 | – | CN1CCC2(CC1)CCN(C(=O)N1CCn3cc(C4=C(c5cnc6ccccn56)C(=O)NC4=O)c4cc(C#N)cc(c43)C1)C2 [Compound I-47] | –
8.00 to 9.00 | 8.00 to 9.00 | 7.00 to 9.00 | O=C1NC(=O)C(c2cnc3ccccn23)=C1c1cn2c3c(cc(F)cc13)CN(C(=O)N1CCCC(F)(F)C1)CC2 [Compound I-12] | +++ (“+++” indicates greater than about 11%)
8.00 to 9.00 | 8.00 to 9.00 | – | CN1CCC2(CC1)CCN(C(=O)N1CCn3cc(C4=C(c5cnc6ccccn56)C(=O)NC4=O)c4cc(F)cc(c43)C1)C2 [Compound I-42] | –
8.00 to 9.00 | 8.00 to 9.00 | – | CN1CCC(CN(C)C(=O)N2CCn3cc(C4=C(c5cnc6ccccn56)C(=O)NC4=O)c4cc(C#N)cc(c43)C2)CC1 [Compound I-46] | –
8.00 to 9.00 | 8.00 to 9.00 | – | CN(C)C1CCN(C(=O)N2CCn3cc(C4=C(c5cnc6ccccn56)C(=O)NC4=O)c4cc(F)cc(c43)C2)CC1 [Compound I-36] | –
8.00 to 9.00 | 8.00 to 9.00 | – | O=C1NC(=O)C(c2cnc3ccccn23)=C1c1cn2c3c(cc(C(F)(F)F)cc13)CN(C(=O)N1CC3CCC(C1)O3)CC2 [Compound I-18] | –
